In patent US20240279218A1 (Hoffmann-La Roche Inc., priority 2016, published 2024):
pKi: −log10 of the molar value.

Experiments:
h-GABA-A α5β3γ2 [1] = target: T1, h-GABA-A α5β3γ2 (Homo sapiens (Human), UniProt P18507+P31644); experiment: Two-electrode voltage clamp electrophysiology in Xenopus oocytes expressing GABAA receptors, modulation of GABA EC20 current; type: cell-based; settings: Xenopus oocytes; for Efficacy (GABA) %: % modulation of GABA EC20 = 100*(Fold increase−1); for Fold increase h-GABA-A α5β3γ2 oocyte: GABA EC20, test compound at approx. 30 fold its Ki
In short: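 Values are % modulation of an EC20 GABA response, derived point by point from the ratio of compound-exposed versus control current traces (extremum taken, 100×(fold−1)). Recordings used oocytes injected with human α5, β3, γ2 mRNA, clamped at −80 mV at room temperature, at least 3 oocytes each.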

h-GABA-A α5β3γ2 [2] = target: T1, h-GABA-A α5β3γ2; experiment: [3H]flumazenil competition binding assay, membranes of HEK293 cells expressing human GABAA receptors; settings: displacement of [3H]flumazenil 0.5 nM, HEK293 cells expressing human receptors, mean of two determinations; read-out: Ki h-GABA-A α5β3γ2
In short: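 Displacement of [3H]flumazenil from membranes of HEK293 cells transiently expressing human α5β3γ2 receptors, in Krebs-tris buffer pH 7.5. Incubation to equilibrium, 1 h at 4° C., then filtration and scintillation counting. Ki is the mean of two determinations.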

Row | SMILES | Efficacy (GABA) % (h-GABA-A α5β3γ2 [1]) [%] | Fold increase h-GABA-A α5β3γ2 oocyte (h-GABA-A α5β3γ2 [1]) | pKi (h-GABA-A α5β3γ2 [2])
1 | Cc1ccc(-c2noc(C)c2COc2ccc(C(=O)N[C@H]3CCCOC3)nn2)cn1 [Example 103, (S)-6-((5-methyl-3-(6-methylpyridin-3-yl)isoxazol-4-yl)methoxy)-N-(tetrahydropyran-3-yl)pyridazine-3-carboxamide] | 81 | 1.81 | 7.10
2 | CCNC(=O)c1ccc(OCc2c(-c3ccc(C)nc3)noc2C)nc1 [Example 3, N-ethyl-6-((5-methyl-3-(6-methyl-3-pyridyl)isoxazol-4-yl)methoxy)pyridine-3-carboxamide] | 41 | 1.41 | 8.85
3 | Cc1ccc(-c2noc(C)c2COc2ccc(C(=O)NC3CCOCC3)nn2)nn1 [Example 193, 6-((5-methyl-3-(6-methylpyridazin-3-yl)isoxazol-4-yl)methoxy)-N-(tetrahydropyran-4-yl)pyridazine-3-carboxamide] | 64 | 1.64 | 9.00
4 | Cc1ccc(-c2noc(C)c2COc2cc3c(cn2)C(=O)N(CC(C)C)C3)cn1 [Example 9, 2-isobutyl-6-((5-methyl-3-(6-methylpyridin-3-yl)isoxazol-4-yl)methoxy)-1H-pyrrolo[3,4-c]pyridin-3(2H)-one] | 62 | 1.62 | 7.86
5 | Cc1ccc(-c2noc(C)c2COc2ccc(C(=O)NCCC#N)nn2)cn1 [Example 33, N-(2-cyanoethyl)-6-((5-methyl-3-(6-methylpyridin-3-yl)isoxazol-4-yl)methoxy)pyridazine-3-carboxamide] | 76 | 1.76 | 7.94
6 | CCc1onc(-c2ccc(C)nc2)c1COc1ccc(C(=O)NC2CCOCC2)nn1 [Example 121, 6-((5-ethyl-3-(6-methylpyridin-3-yl)isoxazol-4-yl)methoxy)-N-(tetrahydropyran-4-yl)pyridazine-3-carboxamide] | 109 | 2.09 | 7.39
7 | Cc1ccc(-c2noc(C)c2COc2cnc(C(=O)NC3CCS(=O)(=O)C3)cn2)cn1 (stereo not drawn) [Example 94, N-(1,1-dioxothiolan-3-yl)-5-((5-methyl-3-(6-methylpyridin-3-yl)-1,2-oxazol-4-yl)methoxy)pyrazine-2-carboxamide] | 92 | 1.92 | 8.00
8 | Cc1ccc(-c2noc(C)c2COc2ccc(C(=O)NC3CCS(=O)(=O)C3)cn2)cn1 (stereo not drawn) [Example 16, N-(1,1-dioxothiolan-3-yl)-6-((5-methyl-3-(6-methyl-3-pyridyl)isoxazol-4-yl)methoxy)pyridine-3-carboxamide] | 85 | 1.85 | 7.72
9 | Cc1ccc(-c2noc(C)c2COc2cc3c(cn2)C(=O)N(C2CC4(COC4)C2)C3)cn1 [Example 117, 6-((5-methyl-3-(6-methylpyridin-3-yl)isoxazol-4-yl)methoxy)-2-(2-oxaspiro[3.3]heptan-6-yl)-1H-pyrrolo[3,4-c]pyridin-3(2H)-one] | 99 | 1.99 | 7.81
10 | Cc1ccc(-c2noc(C)c2COc2cc(C)c(C(=O)NC3CCOCC3)nn2)cn1 [Example 62, 4-methyl-6-((5-methyl-3-(6-methylpyridin-3-yl)isoxazol-4-yl)methoxy)-N-(tetrahydropyran-4-yl)pyridazine-3-carboxamide] | 42 | 1.42 | 7.68
11 | Cc1ccc(-c2noc(C)c2COc2cnc(C(=O)N[C@H]3CC[C@@](C)(O)CC3)cn2)cn1 [Example 104, N-(cis-4-hydroxy-4-methylcyclohexyl)-5-((5-methyl-3-(6-methylpyridin-3-yl)isoxazol-4-yl)methoxy)pyrazine-2-carboxamide] | 43 | 1.43 | 7.18
12 | Cc1ccc(-c2noc(C)c2COc2ccc(C(=O)N3CC(C)(O)C3)nn2)cn1 [Example 56, (3-hydroxy-3-methylazetidin-1-yl)(6-((5-methyl-3-(6-methylpyridin-3-yl)isoxazol-4-yl)methoxy)pyridazin-3-yl)methanone] | 64 | 1.64 | 8.10
13 | Cc1ccc(-c2noc(C)c2COc2ccc(C(=O)N[C@@H]3CCCC[C@@H]3O)nn2)cn1 [Example 27, N-((1R,2S)-2-hydroxycyclohexyl)-6-((5-methyl-3-(6-methylpyridin-3-yl)isoxazol-4-yl)methoxy)pyridazine-3-carboxamide] | 54 | 1.54 | 7.91
14 | Cc1ccc(-c2noc(C)c2COc2ccc(C(=O)NC3CCCC(O)C3)nn2)cn1 (stereo not drawn) [Example 156, N-(3-hydroxycyclohexyl)-6-((5-methyl-3-(6-methylpyridin-3-yl)isoxazol-4-yl)methoxy)pyridazine-3-carboxamide] | 98 | 1.98 | 8.11
15 | Cc1ccc(-c2noc(C)c2COc2cnc(C(=O)N[C@@H]3CCCOC3)cn2)cn1 [Example 98, (R)-5-((5-methyl-3-(6-methylpyridin-3-yl)isoxazol-4-yl)methoxy)-N-(tetrahydropyran-3-yl)pyrazine-2-carboxamide] | 76 | 1.76 | 7.21
16 | CCc1onc(-c2ccc(C)nc2)c1COc1ccc(C(=O)NC2CCOCC2)cn1 [Example 119, 6-((5-ethyl-3-(6-methylpyridin-3-yl)isoxazol-4-yl)methoxy)-N-tetrahydropyran-4-yl-pyridine-3-carboxamide] | 102 | 2.02 | 7.51
17 | Cc1ccc(-c2noc(C)c2COc2ccc(C(=O)N[C@H]3CC[C@H](O)CC3)nn2)cn1 [Example 153, trans-N-(4-hydroxycyclohexyl)-6-((5-methyl-3-(6-methylpyridin-3-yl)isoxazol-4-yl)methoxy)pyridazine-3-carboxamide] | 84 | 1.84 | 8.26
18 | Cc1ccc(-c2noc(C)c2COc2ccc(C(=O)N3CC4(COC4)C3)nn2)cn1 [Example 61, (6-((5-methyl-3-(6-methylpyridin-3-yl)isoxazol-4-yl)methoxy)pyridazin-3-yl)(2-oxa-6-azaspiro[3.3]heptan-6-yl)methanone] | 58 | 1.58 | 8.15
19 | CO[C@H]1CC[C@H](NC(=O)c2ccc(OCc3c(-c4ccc(C)nc4)noc3C)nn2)CC1 [Example 154, trans-N-(4-methoxycyclohexyl)-6-((5-methyl-3-(6-methylpyridin-3-yl)isoxazol-4-yl)methoxy)pyridazine-3-carboxamide] | 97 | 1.97 | 8.00
20 | Cc1ccc(-c2noc(C)c2COc2cnc(C(=O)NCC(F)(F)F)cn2)cn1 [Example 78, 5-((5-methyl-3-(6-methyl-3-pyridyl)isoxazol-4-yl)methoxy)-N-(2,2,2-trifluoroethyl)pyrazine-2-carboxamide] | 42 | 1.42 | 7.61
21 | Cc1ccc(-c2noc(C)c2COc2ccc(C(=O)N3CCC(F)(F)C3)nn2)cn1 [Example 48, (3,3-difluoropyrrolidin-1-yl)(6-((5-methyl-3-(6-methylpyridin-3-yl)isoxazol-4-yl)methoxy)pyridazin-3-yl)methanone] | 74 | 1.74 | 7.50
22 | Cc1ccc(-c2noc(C)c2COc2ccc(C(=O)NCC3COC3)nn2)cn1 [Example 50, 6-((5-methyl-3-(6-methyl-3-pyridyl)isoxazol-4-yl)methoxy)-N-(oxetan-3-ylmethyl)pyridazine-3-carboxamide] | 72 | 1.72 | 8.12
23 | Cc1ccc(-c2noc(C)c2COc2ccc(C(=O)NC3CCS(=O)(=O)CC3)nn2)cn1 [Example 30, N-(1,1-dioxothian-4-yl)-6-((5-methyl-3-(6-methylpyridin-3-yl)-1,2-oxazol-4-yl)methoxy)pyridazine-3-carboxamide] | 94 | 1.94 | 7.91
